Literature values as cited in US20250231185A1, “Coronavirus T Cell Epitopes, Megapools and Uses Thereof” (La Jolla Institute for Immunology, priority 2021, published 2025).

Test system: CD8+ T cells
Conditions: CD8R (D) megapool epitopes; dominant = recognized by 3 or more donors/different studies; cited from earlier work

Row | Substance | Dominant
1 | 1704 (MEVTPSGTW) [compound 1704] | Yes (more dominant epitopes are defined by being recognized by 3 or more donors/different studies)
2 | 1705 (MEVTPSGTWL) [compound 1705] | Yes (more dominant epitopes are defined by being recognized by 3 or more donors/different studies)
3 | 1706 (ILLNKHIDA) [compound 1706] | Yes (more dominant epitopes are defined by being recognized by 3 or more donors/different studies)
4 | 1709 (LPAADLDDF) [compound 1709] | Yes (more dominant epitopes are defined by being recognized by 3 or more donors/different studies)
5 | 1710 (FSKQLQQSM) [compound 1710] | Yes (more dominant epitopes are defined by being recognized by 3 or more donors/different studies)
6 | 1711 (VLSEARQHL) [compound 1711] | Yes (more dominant epitopes are defined by being recognized by 3 or more donors/different studies)
7 | 1712 (TVLSFCAFAV) [compound 1712] | Yes (more dominant epitopes are defined by being recognized by 3 or more donors/different studies)
8 | 1713 (DLKGKYVQI) [compound 1713] | Yes (more dominant epitopes are defined by being recognized by 3 or more donors/different studies)
9 | 1714 (YTMADLVYAL) [compound 1714] | Yes (more dominant epitopes are defined by being recognized by 3 or more donors/different studies)
10 | 1715 (TMADLVYAL) [compound 1715] | Yes (more dominant epitopes are defined by being recognized by 3 or more donors/different studies)
11 | 1716 (LLMPILTLT) [compound 1716] | Yes (more dominant epitopes are defined by being recognized by 3 or more donors/different studies)
12 | 1717 (KLFDRYFKY) [compound 1717] | Yes (more dominant epitopes are defined by being recognized by 3 or more donors/different studies)
13 | 1718 (FVDGVPFVV) [compound 1718] | Yes (more dominant epitopes are defined by being recognized by 3 or more donors/different studies)
14 | 1719 (ISDYDYYRY) [compound 1719] | Yes (more dominant epitopes are defined by being recognized by 3 or more donors/different studies)
15 | 1720 (RQLLFVVEV) [compound 1720] | Yes (more dominant epitopes are defined by being recognized by 3 or more donors/different studies)
16 | 1721 (VVDKYFDCY) [compound 1721] | Yes (more dominant epitopes are defined by being recognized by 3 or more donors/different studies)
17 | 1722 (RLYYDSMSY) [compound 1722] | Yes (more dominant epitopes are defined by being recognized by 3 or more donors/different studies)
18 | 1723 (MVMCGGSLYV) [compound 1723] | Yes (more dominant epitopes are defined by being recognized by 3 or more donors/different studies)
19 | 1724 (DTDFVNEFY) [compound 1724] | Yes (more dominant epitopes are defined by being recognized by 3 or more donors/different studies)
20 | 1725 (FYAYLRKHF) [compound 1725] | Yes (more dominant epitopes are defined by being recognized by 3 or more donors/different studies)
21 | 1726 (RILGAGCFV) [compound 1726] | Yes (more dominant epitopes are defined by being recognized by 3 or more donors/different studies)
22 | 1728 (LYLQYIRKL) [compound 1728] | Yes (more dominant epitopes are defined by being recognized by 3 or more donors/different studies)
23 | 1729 (VLQAVGACV) [compound 1729] | Yes (more dominant epitopes are defined by being recognized by 3 or more donors/different studies)
24 | 1730 (LVLSVNPYV) [compound 1730] | Yes (more dominant epitopes are defined by being recognized by 3 or more donors/different studies)

Row | Substance | Dominant
25 | 1733 (VVYRGTTTY) [compound 1733] | Yes (more dominant epitopes are defined by being recognized by 3 or more donors/different studies)
26 | 1734 (VVYRGTTTYK) [compound 1734] | Yes (more dominant epitopes are defined by being recognized by 3 or more donors/different studies)
27 | 1735 (VYRGTTTYKL) [compound 1735] | Yes (more dominant epitopes are defined by being recognized by 3 or more donors/different studies)
28 | 1736 (KLNVGDYFV) [compound 1736] | Yes (more dominant epitopes are defined by being recognized by 3 or more donors/different studies)
29 | 1737 (SSNVANYQK) [compound 1737] | Yes (more dominant epitopes are defined by being recognized by 3 or more donors/different studies)
30 | 1738 (VYIGDPAQL) [compound 1738] | Yes (more dominant epitopes are defined by being recognized by 3 or more donors/different studies)
31 | 1739 (IVDTVSALV) [compound 1739] | Yes (more dominant epitopes are defined by being recognized by 3 or more donors/different studies)
32 | 1741 (VLWAHGFEL) [compound 1741] | Yes (more dominant epitopes are defined by being recognized by 3 or more donors/different studies)
33 | 1742 (TYACWHHSI) [compound 1742] | Yes (more dominant epitopes are defined by being recognized by 3 or more donors/different studies)
34 | 1743 (AIMTRCLAV) [compound 1743] | Yes (more dominant epitopes are defined by being recognized by 3 or more donors/different studies)
35 | 1744 (IEYPIIGDEL) [compound 1744] | Yes (more dominant epitopes are defined by being recognized by 3 or more donors/different studies)
36 | 1745 (ALLADKFPV) [compound 1745] | Yes (more dominant epitopes are defined by being recognized by 3 or more donors/different studies)
37 | 1746 (SYATHSDKF) [compound 1746] | Yes (more dominant epitopes are defined by being recognized by 3 or more donors/different studies)
38 | 1748 (MMISAGFSL) [compound 1748] | Yes (more dominant epitopes are defined by being recognized by 3 or more donors/different studies)
39 | 1749 (KQFDTYNLW) [compound 1749] | Yes (more dominant epitopes are defined by being recognized by 3 or more donors/different studies)
40 | 1750 (NLWNTFTRL) [compound 1750] | Yes (more dominant epitopes are defined by being recognized by 3 or more donors/different studies)
41 | 1751 (KVDGVDVEL) [compound 1751] | Yes (more dominant epitopes are defined by being recognized by 3 or more donors/different studies)
42 | 1752 (LLLDDFVEII) [compound 1752] | Yes (more dominant epitopes are defined by being recognized by 3 or more donors/different studies)
43 | 1753 (MLWCKDGHV) [compound 1753] | Yes (more dominant epitopes are defined by being recognized by 3 or more donors/different studies)
44 | 1754 (GVAMPNLYK) [compound 1754] | Yes (more dominant epitopes are defined by being recognized by 3 or more donors/different studies)
45 | 1755 (KMQRMLLEK) [compound 1755] | Yes (more dominant epitopes are defined by being recognized by 3 or more donors/different studies)
46 | 1758 (KTIQPRVEK) [compound 1758] | Yes (more dominant epitopes are defined by being recognized by 3 or more donors/different studies)
47 | 1759 (KLVNKFLAL) [compound 1759] | Yes (more dominant epitopes are defined by being recognized by 3 or more donors/different studies)
